From patent publication US7601494B2, “Method of screening candidate compounds for susceptibility to biliary excretion” (The University of North Carolina at Chapel Hill, priority 1999, dated 2009) come the findings set out here.

Data set [1] relates to Mrp3. The data set is described as follows: Immunoblot analysis of Mrp3 expression in siRNA-treated SCRH. As to conditions: vs siFL-transfected and non-transfected cells. The format is cell-based, rat. The protocol:
(§1) HepG2 cells were maintained in Dulbecco's modified Eagle's medium/F-12 plus 10% FBS. Rat hepatocytes were isolated from male Wistar rats (220-300g) by in situ collagenase perfusion (Annaert et al., Drug Metab Dispos 29:1277-1283, 2001). Cells were seeded at a density of 1.5×10^6 cells per well onto polystyrene 6-well plates pre-coated with rat tail type I collagen; a top layer of gelled collagen was overlaid 24 hr after plating. Rat hepatocyte cultures were maintained in Dulbecco's modified Eagle's medium supplemented with 0.1 μM dexamethasone and 0.1% ITS culture supplement (6.25 mg/mL insulin, 6.25 mg/mL transferrin, 6.25 μg/mL selenous acid, 5.35 mg/mL linoleic acid, and […]). Medium was changed every 24 hr.
(§2) HepG2 cells were seeded at a density of 2×10^5 cells per well onto 12-well plates 24 hr before transfection. A mixture of 100 ng firefly luciferase expression plasmid (PGL3-FL) and 100 ng Renilla luciferase expression plasmid (PRL-TK) and various amounts of firefly luciferase siRNA were used per well. Transfections of SCRH were performed at 20 hr after plating, unless specifically indicated. siRNA (2 μg unless specified) was used per well in 6-well plates. siRNA and DNA were formulated for transfection using […]™ transfection reaction kit (QIAGEN Inc. Valencia, Calif. USA). Briefly, siRNA was condensed in Enhancer EC at a ratio of 1:2 (μg of total RNA and/or DNA : μl of Enhancer), and formulated with TransMessenger at a ratio of 1:4 (μg of RNA and /or DNA: μl of TransMessenger) and then incubated with cells. For transfections of HepG2 cells, medium was changed after an overnight incubation with siRNA. For transfections of SCRH, cells were incubated with siRNA for 4 hr and then were overlaid with collagen. siRNA delivery into hepatocytes was more efficient before overlay of the top collagen layer. The effect of transfection was examined 48 hr later.
(§3) Cells were harvested 48 hr post transfection and lysed in 1% SDS, 1 mM EDTA plus COMPLETE™ protease inhibitor cocktail (Roche Diagnostics, Mannheim, Germany). The protein concentration of the clear cell lysate was determined with the BCA Protein Assay Reagent Kit (Pierce Biotech, Inc. Rockford, Ill.). […] of total protein per lane was resolved by electrophoresis on NuPAGE 4-12% Bis-Tris Gel (Invitrogen Life Technology, Carlsbad, Calif. USA) and were transferred onto polyvinylidone difluoride membranes. The following antibodies were used to probe the membranes: anti-Mrp2 (M2111-6, Alexis Biochemicals, San Diego, Calif. USA); anti-Mrp3 (kind gift from Dr. Yuichi Sugiyama); anti-Radixin (Chemicon International, Inc. Temecula, Calif. USA), anti-β-actin (MAB1501, Chemicon).

Data set [2] deals with T1, Mrp3 (Rattus norvegicus, UniProt O88563).
T1 construct: endogenous in cells; host or cells: sandwich-cultured primary hepatocytes of male Wistar rats
T1 sequence (O88563 whole entry): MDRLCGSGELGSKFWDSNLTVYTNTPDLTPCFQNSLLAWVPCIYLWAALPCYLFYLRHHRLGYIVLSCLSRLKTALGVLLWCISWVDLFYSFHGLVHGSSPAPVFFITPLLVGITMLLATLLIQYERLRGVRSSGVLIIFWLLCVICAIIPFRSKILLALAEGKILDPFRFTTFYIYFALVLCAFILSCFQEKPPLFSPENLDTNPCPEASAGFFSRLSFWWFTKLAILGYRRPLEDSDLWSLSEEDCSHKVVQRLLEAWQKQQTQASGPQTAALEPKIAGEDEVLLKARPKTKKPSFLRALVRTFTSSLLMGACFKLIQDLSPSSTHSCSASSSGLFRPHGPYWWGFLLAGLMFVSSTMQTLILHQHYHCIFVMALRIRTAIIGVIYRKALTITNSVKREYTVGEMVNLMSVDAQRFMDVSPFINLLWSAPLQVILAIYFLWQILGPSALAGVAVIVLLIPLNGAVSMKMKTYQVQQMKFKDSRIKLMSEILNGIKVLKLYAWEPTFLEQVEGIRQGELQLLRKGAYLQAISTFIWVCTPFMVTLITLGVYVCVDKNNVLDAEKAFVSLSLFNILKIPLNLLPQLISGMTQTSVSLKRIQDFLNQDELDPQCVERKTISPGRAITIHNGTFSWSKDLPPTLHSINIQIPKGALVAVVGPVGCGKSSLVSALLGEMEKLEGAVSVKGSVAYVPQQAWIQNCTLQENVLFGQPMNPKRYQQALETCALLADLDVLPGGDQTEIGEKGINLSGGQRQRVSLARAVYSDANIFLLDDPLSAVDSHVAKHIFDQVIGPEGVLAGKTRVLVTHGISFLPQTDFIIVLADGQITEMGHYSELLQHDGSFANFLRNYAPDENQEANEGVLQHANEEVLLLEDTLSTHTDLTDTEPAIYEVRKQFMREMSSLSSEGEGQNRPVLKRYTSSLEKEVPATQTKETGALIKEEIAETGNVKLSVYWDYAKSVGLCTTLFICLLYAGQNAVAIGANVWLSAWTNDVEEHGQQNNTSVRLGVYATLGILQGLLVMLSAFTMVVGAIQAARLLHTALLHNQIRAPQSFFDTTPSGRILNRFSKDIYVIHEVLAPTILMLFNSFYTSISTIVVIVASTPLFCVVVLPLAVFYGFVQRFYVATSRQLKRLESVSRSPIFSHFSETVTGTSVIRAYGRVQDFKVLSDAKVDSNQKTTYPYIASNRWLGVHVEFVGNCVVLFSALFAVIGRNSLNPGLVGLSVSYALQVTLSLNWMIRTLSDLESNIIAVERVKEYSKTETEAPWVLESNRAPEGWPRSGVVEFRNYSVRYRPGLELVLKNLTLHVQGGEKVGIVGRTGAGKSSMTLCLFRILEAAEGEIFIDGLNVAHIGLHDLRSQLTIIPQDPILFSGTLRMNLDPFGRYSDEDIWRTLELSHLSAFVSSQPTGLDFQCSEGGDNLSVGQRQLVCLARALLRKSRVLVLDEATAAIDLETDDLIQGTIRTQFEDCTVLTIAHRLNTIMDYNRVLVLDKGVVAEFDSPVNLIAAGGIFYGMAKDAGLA
The data set can be described thus: Assessment of Mrp3 function with CDF disposition in siMrp3-treated SCRH (30 min washout). The format is cell-based. The protocol:
Cells were rinsed twice with Hanks' balanced salt solution (HBSS, 2 mL, 37° C.) and incubated (10 min, 1.5 mL, 37° C.) with 2 μM CDF diacetate (Molecular Probes, Eugene, Oreg. USA), and were then rinsed twice with cold HBSS (2 mL, 4° C.). Cell images were taken with a Axiovert 100TV inverted microscope. Accumulation of CDF in cells+bile canaliculi and cells only was assessed in SCRH pre-incubated (10 min, 2 mL, 37° C.) with standard HBSS and Ca^2+-free HBSS, respectively (Liu et al., J. Pharmacol. Exp. Ther. 289:1592-1599, 1999). SCRH were subsequently incubated with CDF diacetate (10 min, 2 mL, 37° C.). In siMrp2-treated SCRH, cells were then rinsed four times with cold HBSS (2 mL, 4° C.) and lysed (1 mL, 0.5% TritonX-100 in phosphate-buffered saline). In siMrp3-treated SCRH, following incubation with CDF diacetate, cells were rinsed four times with warm HBSS (2 mL, 37° C.) and were incubated with HBSS (30 min, HBSS changed every 10 min, 2 mL, 37° C.) to allow time for intracellular CDF to undergo appreciable basolateral excretion prior to rinsing the SCRH four times with cold HBSS and lysing the cells (as above). CDF fluorescence in lysate was quantified with fluorescence spectrophotometry (λex=485 nm, λem=[…]); protein concentration was determined with the BCA method kit (as above).

For the next data set, the system named is SCRH. The data set is described as follows: Lactate dehydrogenase activity assay of culture medium of SCRH. It counts as cell-based, rat. The conditions noted are these: after three days in culture, mean±SEM. The protocol: Prior to the functional studies, cell culture medium was assayed for lactate dehydrogenase activity, an intracellular enzyme whose leakage into extracellular medium is inversely related to cell viability. Lactate dehydrogenase activity was assayed with kit 500-C (Sigma Diagnostics, St. Louis, Mo. USA) utilizing lactate dehydrogenase-catalyzed reduction of pyruvate to lactate, subsequent conjugation of remaining pyruvate with 2,4-dinitrophenylhydrazine, and spectrophotometric detection (λ=500 nm) of the pyruvate-2,4-dinitrophenylhydrazone conjugate at alkaline pH (Cabaud and Wroblewski, Am. J. Clin. Pathol. 30:234-236,1958).

For the next data set, the system named is Mrp2. The data set is described as follows: Immunoblot analysis of Mrp2 expression in siRNA-treated SCRH. As to conditions: vs siFL-transfected and non-transfected cells. It counts as cell-based, rat. On the procedure:
as §1, §2, §3

Regarding “siMrp3: siRNA targeting rat Mrp3, GGUCCAAGGACCUGCCUCCCA (SEQ ID NO: 6), nucleotides 1950-1970 of Mrp3 cDNA (listed as RNA, chemistry not given here)”, the “Mrp3 protein expression (in words)” value in the data set on Mrp3 [1] is on record as “a decrease in Mrp3 protein expression”. In the data set with Mrp3 [2] (transfected SCRH, after 30 min washout, vs control), the “increase of biliary excretion index of CDF” value is recorded as roughly 60%. In the data set with Mrp3 [2] (transfected SCRH, after 30 min washout, control 36.2%), the “biliary excretion index of CDF” value was 57.5%. Moreover, in the data set with Mrp3 [2] (transfected SCRH, after 30 min washout, non-transfected control 15.6±4.0), the “CDF accumulation in cells only” value came out at 13.7±2.2 pmol/mg protein/10 min. Moreover, the “CDF accumulation in cells+bile canaliculi” value in the data set with Mrp3 [2] (transfected SCRH, after 30 min washout, non-transfected control 24.4±4.3) is 32.3±2.5 pmol/mg protein/10 min. Further, in the data set with Mrp3 [2] (vs siFL-transfected or non-transfected cells), the “CDF fluorescence in canalicular networks (in words)” value is on record as “more intense”. Further, in the data set on SCRH, the lactate dehydrogenase activity is given as 87±3 % non-transfected control SCRH. In addition, in the data set on Mrp2, the “expression of Mrp2 (in words)” value is on record as “no change in expression of Mrp2”.
